Our source for the TGI and GI50 values is PubChem BioAssay (NCI).

Among the test systems are HT29 colon; K-562 leukemia; MOLT-4 leukemia; OVCAR-4 ovarian; RXF 393 renal; SK-MEL-2 melanoma; SK-MEL-5 melanoma; SK-OV-3 ovarian; SNB-19 CNS; HCT-15 colon.
Holding throughout (test): NCI tumour cell line growth inhibition, 48 h

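Interpolation was linear, between the two tested concentrations surrounding the appropriate level; five concentrations were tested over 48 hours in 96-well plates. Abbreviation: GI50, concentration required for 50% inhibition of growth. TGI: concentration producing complete growth inhibition.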 A value given as a limit tells only on which side of the number the result lay.

Regarding `CCc1cc(=O)n(/C(C)=C/c2ccccc2)n1C`, the TGI in the experiment on HT29 colon, in the experiment on K-562 leukemia, in the experiment on MOLT-4 leukemia, in the experiment on OVCAR-4 ovarian, with RXF 393 renal and in the experiment with SK-MEL-2 melanoma was above 100 µM throughout. For the same compound, the TGI in the experiment with SK-MEL-5 melanoma, in the experiment on SK-OV-3 ovarian and in the experiment with SNB-19 CNS was above 100 µM throughout.
As for `CCOC(=O)c1csc(NC(=O)CCCC#N)n1`, the TGI with HCT-15 colon, in the experiment with HT29 colon, in the experiment with K-562 leukemia, with MOLT-4 leukemia, in the experiment on OVCAR-4 ovarian and in the experiment on RXF 393 renal was above 100 µM in each case. Moreover, the TGI with SK-MEL-2 melanoma, with SK-MEL-5 melanoma, with SK-OV-3 ovarian and in the experiment on SNB-19 CNS was above 100 µM in each case.
On to `c1ccc([P+](Cc2csnn2)(c2ccccc2)c2ccccc2)cc1`, for which the TGI with HCT-15 colon, with HT29 colon, in the experiment on MOLT-4 leukemia, in the experiment with OVCAR-4 ovarian, in the experiment on RXF 393 renal and with SK-MEL-2 melanoma was above 100 µM throughout. The TGI in the experiment with SK-MEL-5 melanoma, with SK-OV-3 ovarian and with SNB-19 CNS was above 100 µM in each case.
Consider `CCOC(=O)C(C)NC(=O)N(C)C12CC3CC(CC(C3)C1)C2` (configuration not stated), for which the TGI was 490 µM in the experiment with HCT-15 colon; above 500 µM with HT29 colon; above 500 µM in the experiment with K-562 leukemia; 420 µM in the experiment with MOLT-4 leukemia; above 472 µM in the experiment with OVCAR-4 ovarian; above 455 µM in the experiment on RXF 393 renal. For the same compound, the TGI in the experiment on SK-MEL-2 melanoma was above 316 µM; with SK-MEL-5 melanoma it was 286 µM; in the experiment with SK-OV-3 ovarian, 493 µM; in the experiment with SNB-19 CNS it was above 500 µM.
As to `O=C1c2c(c3c4ccc(Br)cc4oc3c3[nH]c4ccccc4c23)C(=O)N1O`, the GI50 in the experiment on HCT-15 colon was 2130 nM; with K-562 leukemia, 2070 nM; with MOLT-4 leukemia, 308 nM; with RXF 393 renal, 2100 nM; in the experiment on SK-MEL-2 melanoma, 2340 nM; in the experiment with SK-MEL-5 melanoma it was 1480 nM. Besides, the values for the GI50 in the experiment with SK-OV-3 ovarian and in the experiment on SNB-19 CNS were 2.84 µM and 2.14 µM, respectively. In addition, the TGI was above 100 µM in the experiment on HCT-15 colon; above 100 µM with K-562 leukemia; above 100 µM in the experiment with MOLT-4 leukemia; 6.34 µM in the experiment with RXF 393 renal; 7.23 µM in the experiment on SK-MEL-2 melanoma; 3.27 µM in the experiment on SK-MEL-5 melanoma. The TGI in the experiment with SK-OV-3 ovarian and in the experiment on SNB-19 CNS was above 100 µM in each case.
For the compound `CCC1(CC)C(=O)NC(=S)N=C1N`, the TGI in the experiment with HCT-15 colon, in the experiment with HT29 colon, in the experiment with K-562 leukemia, in the experiment with MOLT-4 leukemia, in the experiment on OVCAR-4 ovarian and in the experiment on RXF 393 renal was above 100 µM each time. For the same compound, the TGI with SK-MEL-2 melanoma, in the experiment on SK-OV-3 ovarian and with SNB-19 CNS was above 100 µM each time.
`COc1ccc(CN2C(=O)C(=O)N(C)C2=O)c2ccccc12`: the TGI with HCT-15 colon, in the experiment with HT29 colon, with K-562 leukemia, with MOLT-4 leukemia, with OVCAR-4 ovarian and in the experiment on RXF 393 renal was above 10 µM throughout. For the same compound, the TGI in the experiment on SK-MEL-2 melanoma, with SK-MEL-5 melanoma, with SK-OV-3 ovarian and with SNB-19 CNS was above 10 µM in each case.
Regarding `CCOC(=O)C1=C(C)NC(=O)N([N+](=O)[O-])C1c1ccccc1C(F)(F)F` (configuration not stated), the TGI with HCT-15 colon, in the experiment with HT29 colon, with K-562 leukemia, in the experiment on MOLT-4 leukemia, in the experiment with OVCAR-4 ovarian and in the experiment with RXF 393 renal was above 100 µM each time. In addition, the TGI with SK-MEL-2 melanoma, in the experiment on SK-MEL-5 melanoma, with SK-OV-3 ovarian and with SNB-19 CNS was above 100 µM in each case.
As to `O=C(NN1C(=O)CSC1c1ccc(Cl)c(Cl)c1)c1ccncc1` (configuration not stated), the TGI in the experiment on HCT-15 colon, with HT29 colon, with K-562 leukemia, in the experiment with MOLT-4 leukemia, in the experiment on OVCAR-4 ovarian and with RXF 393 renal was above 100 µM throughout. Also, the TGI in the experiment with SK-MEL-2 melanoma, with SK-MEL-5 melanoma, with SK-OV-3 ovarian and in the experiment with SNB-19 CNS was above 100 µM each time.
For `Cc1cc(C)nc(NS(=O)(=O)c2ccc(Nc3c4ccccc4nc4c(C(=O)NCCO)cccc34)cc2)n1`, the TGI was 46 µM in the experiment on HCT-15 colon; 38.3 µM in the experiment with HT29 colon; above 100 µM with K-562 leukemia; above 100 µM in the experiment with MOLT-4 leukemia; 97.5 µM with OVCAR-4 ovarian; 35.7 µM in the experiment on SK-MEL-2 melanoma. Further, the TGI with SK-MEL-5 melanoma was 36.6 µM; in the experiment with SK-OV-3 ovarian, above 100 µM; in the experiment on SNB-19 CNS it was above 100 µM.
As to `O=c1c2cc3c(=O)n(CCc4ccccc4CO)c(=O)c3cc2c(=O)n1CCc1ccccc1CO`, the TGI in the experiment with HCT-15 colon, in the experiment on HT29 colon, in the experiment on K-562 leukemia, in the experiment with MOLT-4 leukemia, in the experiment on OVCAR-4 ovarian and with RXF 393 renal was above 100 µM throughout. In addition, the TGI with SK-MEL-2 melanoma, in the experiment with SK-MEL-5 melanoma, in the experiment on SK-OV-3 ovarian and with SNB-19 CNS was above 100 µM throughout.
Regarding `COc1cc(CCCOC2OC(COC3OCC(O)C(O)C3O)C(O)C(O)C2O)cc2cc(-c3ccc4c(c3)OCO4)oc12` (configuration not stated), the TGI was above 175 µM in the experiment on HCT-15 colon; above 175 µM in the experiment with HT29 colon; above 175 µM with K-562 leukemia; above 175 µM in the experiment with MOLT-4 leukemia; above 175 µM in the experiment on OVCAR-4 ovarian; above 114 µM in the experiment with RXF 393 renal. Further, the TGI in the experiment on SK-MEL-2 melanoma, in the experiment on SK-MEL-5 melanoma, in the experiment on SK-OV-3 ovarian and in the experiment on SNB-19 CNS was above 175 µM throughout.
Take `Nc1nc(Nc2ccc(OCc3cccc(F)c3)cc2)c2c(n1)[nH]c1ccc(O)cc12`: the GI50 with HCT-15 colon is 3610 nM; in the experiment on HT29 colon, 2130 nM; in the experiment on K-562 leukemia, 2660 nM; in the experiment with MOLT-4 leukemia, 2770 nM; with OVCAR-4 ovarian it was 2180 nM; with RXF 393 renal, 1780 nM. Also, the GI50 in the experiment on SK-MEL-2 melanoma was 2610 nM; in the experiment with SK-MEL-5 melanoma, 4170 nM; in the experiment on SK-OV-3 ovarian, 17.1 µM; in the experiment on SNB-19 CNS it was 4.4 µM. Besides, the TGI in the experiment on HCT-15 colon stood at 16.2 µM; in the experiment with HT29 colon, 4.49 µM; with K-562 leukemia it was 6.65 µM; in the experiment with MOLT-4 leukemia, 8.34 µM; in the experiment on OVCAR-4 ovarian, 6.04 µM; with RXF 393 renal, 3.55 µM. Further, the TGI with SK-MEL-2 melanoma amounted to 7.71 µM; with SK-MEL-5 melanoma, 15.2 µM; in the experiment with SK-OV-3 ovarian it was 31.3 µM; in the experiment on SNB-19 CNS, 21.7 µM.
